This note sets out measurements from ChEMBL document CHEMBL1201862, “PubChem BioAssay data set” (2004).

Usually GI50 stands for the concentration at which growth is held to half of that of the control.

Holding throughout (experiment): DTP human tumour cell line panel, 48 h
In test [1] the test system is A498.
In test [2] the test system is HOP-62.
For test [3], the system named is HT-29.
Test [4] has as its system IGROV-1.
The test system of test [5] is K562.
Test [6] concerns KM12.
Test [7] has as its system LXFL 529.
Test [8] deals with NCI-H460.
Test [9] concerns NCI-H522.
The test system of test [10] is OVCAR-5.
The test system of test [11] is OVCAR-8.
The test system of test [12] is RPMI-8226.
Test [13] deals with RXF 393.
The test system of test [14] is SK-MEL-2.
Test [15] concerns SK-OV-3.
Test [16] relates to SR.
Test [17] relates to UACC-257.
The test system of test [18] is UO-31.

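Values below derive from 48-hour exposures of cells grown in 96-well plates, with endpoints linearly interpolated between the two concentrations bracketing the appropriate inhibition level. GI50 = concentration required for 50% inhibition of growth.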 The source made the active and inactive calls. Rule as the data show it: active = GI50 up to about 1.1 µM and inactive = higher.

Turning to `CCCCCCCSCC1C(=O)C23C(O)C1CCC2C12COC3(O)C(O)C1C(C)(C)CCC2O` (stereo not drawn), the GI50 in test [1] is 11.5 µM (inactive); in test [2], 20.3 µM (inactive); in test [3], 13.5 µM (inactive); in test [4], 17.9 µM (inactive); in [5], 3.98 µM (inactive); in test [6], 10.6 µM (inactive). In addition, the GI50 in [7] was 2.37 µM (inactive); in test [8], 15.1 µM (inactive); in test [9], 1.4 µM (inactive); in [10] it was 17.5 µM (inactive); in test [11], 16.4 µM (inactive); in [12] it was 4.06 µM (inactive). Besides, the GI50 in test [13] is 11.2 µM (inactive); in [14] it was 14.8 µM (inactive); in test [15], 18.1 µM (inactive); in test [16] it was 4.92 µM (inactive); in [17] it was 7.16 µM (inactive); in [18], 11.2 µM (inactive).

Turning to `C/C(=N/NC(=O)C(N)=O)C(CC(C(=O)Nc1ccccc1C)/C(C)=N\NC(=O)C(N)=O)C(=O)Nc1ccccc1C` (stereo not drawn), the GI50 in test [1], in [2], in test [3], in [4], in test [5] and in test [6] was > 100 µM (inactive) in each case. Also, the GI50 in [7] is > 100 µM (inactive); in [8] it was > 100 µM (inactive); in test [9], 66.4 µM (inactive); in test [10], > 100 µM (inactive); in [11] it was > 100 µM (inactive); in [12], > 100 µM (inactive). In addition, the GI50 in [13] is > 100 µM (inactive); in test [14], > 100 µM (inactive); in test [15], > 100 µM (inactive); in test [17], > 100 µM (inactive); in test [18], 70.5 µM (inactive).

Turning to `CCCC/C=C1\CCC(C)(CN(C)C)C1=O` (stereo not drawn), the GI50 in test [1], in [2], in test [3], in test [4], in test [5] and in test [6] was > 100 µM (inactive) in each case. Besides, the GI50 in [7] is > 100 µM (inactive); in test [8] it was > 100 µM (inactive); in test [9] it was 28.9 µM (inactive); in test [10], > 100 µM (inactive); in [11], > 100 µM (inactive); in [13], 46.5 µM (inactive). For the same compound, the GI50 in test [14], in test [16], in [17] and in test [18] was > 100 µM (inactive) throughout.

In the case of `CCOc1ccc(NC(=O)CCc2nnc(SC)o2)cc1`, the GI50 in [1], in test [2], in test [3], in [4], in [5] and in test [6] was > 100 µM (inactive) each time. Further, the GI50 in [7], in test [8], in [9], in test [10], in [11] and in [13] was > 100 µM (inactive) in each case. The GI50 in [14], in test [15], in [16], in [17] and in test [18] was > 100 µM (inactive) in each case.

As for `C=CCCCCCCCCCCCC1CCC(CC)N1` (stereo not drawn), the GI50 in [1] is 19.5 µM (inactive); in test [2] it was 12.3 µM (inactive); in test [3], 3.67 µM (inactive); in [4], 10.1 µM (inactive); in test [5], 4.7 µM (inactive); in test [6], 3.87 µM (inactive). In addition, the GI50 in test [7] was 12.7 µM (inactive); in [8], 17.7 µM (inactive); in [9] it was 3.78 µM (inactive); in test [10], 10.6 µM (inactive); in [12], 8.28 µM (inactive); in test [13] it was 4.86 µM (inactive). Further, the GI50 in [14] is 13.2 µM (inactive); in test [15], 15.1 µM (inactive); in test [16], 2.47 µM (inactive); in test [17], 13.9 µM (inactive); in test [18], 11.2 µM (inactive).

`Cc1cc(C)c(C(=O)/C(=C/c2ccccc2)c2ccccc2)c(C)c1`: the GI50 in [2] was > 100 µM (inactive); in test [3] it was 28.2 µM (inactive); in test [4], 86.3 µM (inactive); in test [5] it was 36.3 µM (inactive); in test [6], 55.2 µM (inactive); in [7] it was 34.8 µM (inactive). For the same compound, the GI50 in test [8] is 42.4 µM (inactive); in test [9] it was 26.2 µM (inactive); in test [11], 46.5 µM (inactive); in test [12], 37.1 µM (inactive); in test [13], 46.2 µM (inactive); in [14], 11.3 µM (inactive). Further, the GI50 in test [15] was > 100 µM (inactive); in [16], 36.6 µM (inactive); in [17], 28.4 µM (inactive); in test [18], 56.8 µM (inactive).

As for `Cc1cc(/C=C/c2cc[n+](C)c3ccccc23)c(O)c2ncccc12`, the GI50 is 4.19 µM (inactive) in [1]; 1.87 µM (inactive) in test [2]; 3.76 µM (inactive) in test [3]; 1.93 µM (inactive) in test [4]; 2.46 µM (inactive) in test [5]; 2.19 µM (inactive) in [6]. The concentration for 50% growth inhibition (GI50) in [7] is 0.156 µM (active); in [8], 0.597 µM (active); in [9], 1.77 µM (inactive); in [10], 3.27 µM (inactive); in test [11], 0.411 µM (active); in test [12] it was 0.71 µM (active). In addition, the GI50 was 2.38 µM (inactive) in [13]; 2.67 µM (inactive) in test [14]; 2.4 µM (inactive) in [15]; 0.379 µM (active) in [16]; 2.97 µM (inactive) in test [17]; 6.67 µM (inactive) in test [18].

With `CCSC1=CC(Cc2ccc(OC)cc2)N(C(=O)OC)C1` (stereo not drawn), the GI50 in test [1] is > 100 µM (inactive); in test [2], > 100 µM (inactive); in test [3], 94.2 µM (inactive); in test [4], > 100 µM (inactive); in [5], 34.3 µM (inactive); in [6], 97.7 µM (inactive). Also, the GI50 is 91.4 µM (inactive) in test [7]; > 100 µM (inactive) in test [8]; 52.6 µM (inactive) in test [9]; > 100 µM (inactive) in test [10]; > 100 µM (inactive) in test [11]; 32.3 µM (inactive) in [13]. In addition, the GI50 in test [14] is 97.7 µM (inactive); in test [15] it was > 100 µM (inactive); in test [16], 26.3 µM (inactive); in test [17] it was 90.6 µM (inactive); in test [18], > 100 µM (inactive).

For `Cc1nc(C)c(C(=O)Nc2cccc3c2C(=O)NC3=O)cc1C(=O)Nc1cccc2c1C(=O)NC2=O`, the GI50 in test [1], in [2], in test [3], in test [4], in [5] and in test [6] was > 100 µM (inactive) each time. For the same compound, the GI50 in test [7], in test [8], in [9], in [10], in test [11] and in test [12] was > 100 µM (inactive) throughout. The GI50 in [13], in test [14], in test [15], in test [16], in test [17] and in test [18] was > 100 µM (inactive) throughout.

As for `COC(=O)N/N=C(\C)c1c(O)cc(C)oc1=O`, the GI50 in test [1] was > 100 µM (inactive); in test [2], 36.2 µM (inactive); in test [3], 65.3 µM (inactive); in test [4] it was > 100 µM (inactive); in test [5] it was 17.5 µM (inactive); in test [6], 52.6 µM (inactive). In addition, the GI50 in test [7] was 10.8 µM (inactive); in [8], 37.8 µM (inactive); in test [11] it was 59.3 µM (inactive); in test [14], 41.4 µM (inactive); in test [15], > 100 µM (inactive); in [16], 37.2 µM (inactive). The GI50 in [17] is > 100 µM (inactive); in test [18], 40.1 µM (inactive).

In the case of `CCOc1ccc(/N=C/c2c3ccccc3nc3ccccc23)cc1`, the GI50 in test [1] was 68.1 µM (inactive); in [2], 39.4 µM (inactive); in test [3], 21.8 µM (inactive); in test [4], > 100 µM (inactive); in test [5], 4.48 µM (inactive); in test [6], 4.33 µM (inactive). Also, the GI50 in [7] was 24.7 µM (inactive); in test [8], 48.9 µM (inactive); in [9] it was 49 µM (inactive); in test [10], > 10 µM (inactive); in test [11], 65.3 µM (inactive); in test [12], 21.8 µM (inactive). Also, the GI50 was 46.2 µM (inactive) in test [13]; 31.3 µM (inactive) in test [14]; > 100 µM (inactive) in test [15]; 55.1 µM (inactive) in test [17]; 98.6 µM (inactive) in test [18].

For `O=C1C2C3C=C4c5ccccc5N(c5ccccc5)C4(C2C(=O)N1c1ccc(Br)cc1)[C@H]1C(=O)N(c2ccc(Br)cc2)C(=O)[C@@H]31` (stereo partly drawn), the GI50 in [1], in test [2], in test [3], in test [4], in test [5] and in test [6] was > 100 µM (inactive) each time. In addition, the GI50 in test [7] is 83.8 µM (inactive); in test [8] it was > 100 µM (inactive); in test [9] it was > 100 µM (inactive); in test [10], > 100 µM (inactive); in test [11], > 100 µM (inactive); in [12] it was 3.41 µM (inactive). The GI50 was > 100 µM (inactive) in test [13]; > 100 µM (inactive) in test [14]; > 100 µM (inactive) in [15]; 38.9 µM (inactive) in [16]; > 100 µM (inactive) in [17]; > 100 µM (inactive) in test [18].
